Legend:
[1] = biological target: MOR (Mus musculus, UniProt P42866); assay: MOR [35S]GTPγS functional assay, MOR-CHO membranes; format: biochemical; settings: for Emax: read-out: MOR [35S]GTPγS Emax, relative to maximal stimulation produced by DAMGO; for MOR [35S]GTPγS Emax: relative to maximal stimulation produced by DAMGO
[2] = tested on: MOR; format: binding; settings: for Selectivity D/M: ratio Ki DOR / Ki MOR; for Selectivity K/M: ratio Ki KOR / Ki MOR
[3] = biological target: KOR (Homo sapiens, UniProt P41145); format: binding
[4] = biological target: DOR (Homo sapiens, UniProt P41143); format: binding
[5] = tested on: Swiss Webster mice; assay: Warm-water tail immersion assay, agonism; settings: single dose 10 mg kg^−1 s.c., 20 min after injection
[6] = tested on: Swiss Webster mice; assay: Warm-water tail immersion assay, antagonism of morphine antinociception; settings: single dose 10 mg kg^−1 s.c. in the presence of morphine 10 mg kg^−1 s.c.

| Structure (SMILES) | EC50 [1] [nM] | Emax [1] [%] | Selectivity D/M [2] | Selectivity K/M [2] | Ki [3] [nM] | Ki [4] [nM] | %MPE (antinociception) [5] [%] | ability to reverse the antinociceptive effects of morphine [6] | MOR [35S]GTPγS Emax [1] [%] |
| --- | --- | --- | --- | --- | --- | --- | --- | --- | --- |
| O=C(N[C@H]1CC[C@@]2(O)[C@H]3Cc4ccc(O)c5c4[C@@]2(CCN3CC2CC2)[C@H]1O5)c1cccc2c(-c3ccncc3)coc12 [Compound 6, N-((4R,4aS,7S,7aR,12bS)-3-(Cyclopropylmethyl)-4a,9-dihydroxy-2,3,4,4a,5,6,7,7a-octahydro-1H-4,12-methanobenzofuro[3,2-e]isoquinolin-7-yl)-3-(pyridin-4-yl)benzofuran-7-carboxamide] | 12 ± 2.1 | 14.8 ± 1.6 | 41 | 3.7 | 8.7 ± 1.5 | 97.7 ± 16.3 | – | – | – |
| Cc1coc2c(C(=O)N[C@H]3CC[C@@]4(O)[C@H]5Cc6ccc(O)c7c6[C@@]4(CCN5CC4CC4)[C@H]3O7)cccc12 [Compound 4, N-((4R,4aS,7S,7aR,12bS)-3-(Cyclopropylmethyl)-4a,9-dihydroxy-2,3,4,4a,5,6,7,7a-octahydro-1H-4,12-methanobenzofuro[3,2-e]isoquinolin-7-yl)-3-methylbenzofuran-7-carboxamide] | 4.52 ± 0.39 | 23.5 ± 1.6 | 130 | 23 | 15.7 ± 1.3 | 87 ± 5.3 | – | – | – |
| O=C(N[C@H]1CC[C@@]2(O)[C@H]3Cc4ccc(O)c5c4[C@@]2(CCN3CC2CC2)[C@H]1O5)c1cccc2c(-c3ccccc3)coc12 [Compound 5, N-((4R,4aS,7S,7aR,12bS)-3-(Cyclopropylmethyl)-4a,9-dihydroxy-2,3,4,4a,5,6,7,7a-octahydro-1H-4,12-methanobenzofuro[3,2-e]isoquinolin-7-yl)-3-phenylbenzofuran-7-carboxamide] | 27.4 ± 5 | 17.3 ± 1 | 173 | 24 | 33.8 ± 5.6 | 238 ± 28 | – | – | – |
| O=C(N[C@@H]1CC[C@@]2(O)[C@H]3Cc4ccc(O)c5c4[C@@]2(CCN3CC2CC2)[C@H]1O5)c1cccc2c(Cl)coc12 [Compound 9, 3-Chloro-N-((4R,4aS,7R,7aR,12bS)-3-(cyclopropylmethyl)-4a,9-dihydroxy-2,3,4,4a,5,6,7,7a-octahydro-1H-4,12-methanobenzofuro[3,2-e]isoquinolin-7-yl)benzofuran-7-carboxamide] | 0.35 ± 0.07 | 51.2 ± 3.4 | 37 | 1.1 | 0.16 ± 0.02 | 5.17 ± 1.13 | 84.5 | – | – |
| O=C(N[C@H]1CC[C@@]2(O)[C@H]3Cc4ccc(O)c5c4[C@@]2(CCN3CC2CC2)[C@H]1O5)c1cccc2c(Cl)coc12 [Compound 3, 3-Chloro-N-((4R,4aS,7S,7aR,12bS)-3-(cyclopropylmethyl)-4a,9-dihydroxy-2,3,4,4a,5,6,7,7a-octahydro-1H-4,12-methanobenzofuro[3,2-e]isoquinolin-7-yl)benzofuran-7-carboxamide] | 2.65 ± 0.47 | 21.6 ± 0.8 | 277 | 34 | 17.1 ± 1.3 | 138 ± 24 | – | – | – |
| O=C(N[C@@H]1CC[C@@]2(O)[C@H]3Cc4ccc(O)c5c4[C@@]2(CCN3CC2CC2)[C@H]1O5)c1cccc2c(-c3ccccc3)coc12 [Compound 11, N-((4R,4aS,7R,7aR,12bS)-3-(Cyclopropylmethyl)-4a,9-dihydroxy-2,3,4,4a,5,6,7,7a-octahydro-1H-4,12-methanobenzofuro[3,2-e]isoquinolin-7-yl)-3-phenylbenzofuran-7-carboxamide] | 0.56 ± 0.07 | ~10 | 123 | 110 | 19.7 ± 2.2 | 22.1 ± 3.2 | – | considerable antagonism activity | – |
| Cl.O=C(N[C@H]1CC[C@@]2(O)[C@H]3Cc4ccc(O)c5c4[C@@]2(CCN3CC2CC2)[C@H]1O5)c1cccc2c(Br)coc12 [Compound 2, 3-Bromo-N-((4R,4aS,7S,7aR,12bS)-3-(cyclopropylmethyl)-4a,9-dihydroxy-2,3,4,4a,5,6,7,7a-octahydro-1H-4,12-methanobenzofuro[3,2-e]isoquinolin-7-yl)benzofuran-7-carboxamide hydrochloride] | 7.37 ± 2.32 | – | 154 | 30 | 17.3 ± 1.2 | 87.8 ± 5.5 | – | – | 16.0 ± 4.0 |
| O=C(N[C@@H]1CC[C@@]2(O)[C@H]3Cc4ccc(O)c5c4[C@@]2(CCN3CC2CC2)[C@H]1O5)c1cccc2c(-c3ccncc3)coc12 [Compound 12, N-((4R,4aS,7R,7aR,12bS)-3-(Cyclopropylmethyl)-4a,9-dihydroxy-2,3,4,4a,5,6,7,7a-octahydro-1H-4,12-methanobenzofuro[3,2-e]isoquinolin-7-yl)-3-(pyridin-4-yl)benzofuran-7-carboxamide] | 1.2 ± 0.38 | ~10 | 213 | 35 | 7.34 ± 0.95 | 45 ± 9.3 | – | considerable antagonism activity | – |
| Cl.O=C(N[C@@H]1CC[C@@]2(O)[C@H]3Cc4ccc(O)c5c4[C@@]2(CCN3CC2CC2)[C@H]1O5)c1cccc2c(Br)coc12 [Compound 8, 3-Bromo-N-((4R,4aS,7R,7aR,12bS)-3-(cyclopropylmethyl)-4a,9-dihydroxy-2,3,4,4a,5,6,7,7a-octahydro-1H-4,12-methanobenzofuro[3,2-e]isoquinolin-7-yl)benzofuran-7-carboxamide hydrochloride] | 0.49 ± 0.08 | – | 27 | 1.0 | 0.21 ± 0.01 | 5.34 ± 0.99 | 90.9 | – | 42.9 ± 3.9 |
| Cc1coc2c(C(=O)N[C@@H]3CC[C@@]4(O)[C@H]5Cc6ccc(O)c7c6[C@@]4(CCN5CC4CC4)[C@H]3O7)cccc12 [Compound 10, N-((4R,4aS,7R,7aR,12bS)-3-(Cyclopropylmethyl)-4a,9-dihydroxy-2,3,4,4a,5,6,7,7a-octahydro-1H-4,12-methanobenzofuro[3,2-e]isoquinolin-7-yl)-3-methylbenzofuran-7-carboxamide] | 0.81 ± 0.14 | 32.7 ± 3.3 | 57 | 1.9 | 0.44 ± 0.08 | 13.1 ± 1.1 | 54.2 | – | – |
